Reference: patent publication US20030220201A1, “Method and device for the generation of cyclopropene compounds” (priority 2002, published 2003)

Columns and labels:
Type in all cases: physicochemical
[1] = Release of 1-MCP by gas sparge, large scale, 3.3% complex, conical bottom vessel (Example 4); conditions: 182 g 3.3% complex in 8 liters water, air 204 liters/hour, 22° C.
Protocol: One hundred eighty two grams of a 3.3% concentration of a 1-MCP/α-CD powder complex was placed in an 11 liter plastic vessel having a conical shaped bottom (at a 60 degree angle from horizontal). To the vessel was then added 8 liters of water. The vessel was fitted with a Kordon Mist Air® fine air diffuser (Novalek, Inc., Hayward, Calif.) hooked to a Sensidyne AP060SEEF60C1 air pump (available from Sensidyne Inc., Clearwater, Fla. which was set at a pumping rate of 204 liters of air/hour. The vessel was covered and then fitted with an outlet tube through which all of the vented air passed. The temperature was set at 22° C.
After the pump was turned on, the exiting air was sampled periodically for 1-MCP content. Analysis was by gas chromatography using a flame ionization detector.

[2] = Release of 1-MCP from 1-MCP/α-CD complex in water, Comparative 2 (stir bar); conditions: 50 g 0.14% complex in 250 ml water, constant magnetic stir bar, no pump
Protocol: (§1) Fifty grams of 0.14% concentration of 1-MCP/α-CD complex in powdered form was placed into a 1000 ml beaker which also contained 250 ml of water. Into the beaker was also placed a Mini Jet® MN404 submersible pump (available from IPSD, Inc., San Diego, Calif.) which was set at a flow rate of approximately 200 liters/hour. This system was then placed into a 36 liter Plexiglas airtight chamber fitted with a septum for inserting a syringe for gas sampling. The temperature was set at 22° C.
(§2) After the chamber was sealed, the pump was turned on, creating a fountain-type flow in the beaker. The atmosphere of the chamber was sampled periodically to monitor the release of 1-MCP. The analysis was performed by gas chromatography using a flame ionization detector.
(§3) This procedure was repeated twice without using the pump for comparison purposes. The first comparison involved mixing the powdered suspension by swirling the contents of the beaker for 30 seconds, every 5 minutes. The second comparison involved using a 2 inch magnetic stir bar and a stir plate instead a pump to constantly mix the suspension.

[3] = Release of 1-MCP from 1-MCP/α-CD complex in water, Comparative 1 (mix every 5 min.); conditions: 50 g 0.14% complex in 250 ml water, swirling 30 seconds every 5 minutes, no pump
Protocol: as §1, §2, §3

[4] = Release of 1-MCP by gas sparge, large scale, 0.14% complex (Example 3); conditions: 3400 g 0.14% complex in 11 liters water, air 400 liters/hour, 22° C.
Protocol: Thirty four hundred grams of a 0.14% 1-MCP/α-CD complex in powdered form was placed into a 20 liter plastic vessel containing 11 liters of water and a 56 inch segment of a Bubble Wall air diffuser (IPSD, Inc., San Diego, Calif.). The air diffuser is hooked to a Pro Gold® Profile 400 air pump via flexible connective tubing. The pump was set at the rate of 400 liters of air/hour. The temperature was set at 22° C.
The vessel was covered and fitted with an outlet tube through which all of the escaping air had to pass. After the pump was turned on, the air exiting the vessel was sampled periodically for 1-MCP content. Analysis was by gas chromatography using a flame detector.

[5] = Release of 1-MCP by gas sparge, small scale (Example 2); conditions: 50 g 0.14% complex in 250 ml water, air 100 liters/hour
Protocol: Fifty grams of a 0.14% 1-MCP/α-CD complex in powdered form was placed into a 600 ml beaker which contained 250 ml of water. Also present in the beaker is a 10 inch long segment of Bubble Wall air diffusers (IPSD, Inc. San Diego, Calif.). This was connected to a Tetratec® air pump (Tetra Co., Blacksburg, Va.) via flexible connective tubing. The pump was set at a rate of 100 liters/hour. This system was then placed in a 36 liter Plexiglas airtight chamber fitted with a septum for inserting a syringe for gas sampling.
After the chamber was sealed, the pump was turned on to sparge gas through the aqueous suspension. The air in the chamber was sampled periodically to determine the rate of 1-MCP released. Analysis was performed by gas chromatography using a flame ionization detector.

[6] = Release of 1-MCP from 1-MCP/α-CD complex in water, fountain pump (Example 1); conditions: 50 g 0.14% 1-MCP/α-CD complex in 250 ml water, pump approx. 200 liters/hour, 22° C.
Protocol: as §1, §2

## CC1=CC1 [1-MCP, 1-methylcyclopropene]
[1]; Time 1.0 hrs.
  Percent 1-MCP Released (gas sparge): 85%
[1]; Time 1.85 hrs.
  Percent 1-MCP Released (gas sparge): 100%
[2]; Time 0.17
  Percent 1-MCP Released Comparative 2 (stir bar): 4%
[2]; Time 0.42
  Percent 1-MCP Released Comparative 2 (stir bar): 6%
[2]; Time 1.0
  Percent 1-MCP Released Comparative 2 (stir bar): 9%
[2]; Time 1.5
  Percent 1-MCP Released Comparative 2 (stir bar): 14%
[2]; Time 2.5
  Percent 1-MCP Released Comparative 2 (stir bar): 21%
[2]; Time 5.5 (hours)
  Percent 1-MCP Released Comparative 2 (stir bar): 43%
[3]; Time 0.17
  Percent 1-MCP Released Comparative 1 (mix every 5 min.): 4%
[3]; Time 0.42
  Percent 1-MCP Released Comparative 1 (mix every 5 min.): 6%
[3]; Time 1.0
  Percent 1-MCP Released Comparative 1 (mix every 5 min.): 9%
[3]; Time 3.0
  Percent 1-MCP Released Comparative 1 (mix every 5 min.): 14%
[3]; Time 4.0
  Percent 1-MCP Released Comparative 1 (mix every 5 min.): 16%
[3]; Time 5.5 (hours)
  Percent 1-MCP Released Comparative 1 (mix every 5 min.): 17%
[4]; Time 0.17 hrs.
  Percent 1-MCP Released (gas sparge): 12%
[4]; Time 0.33 hrs.
  Percent 1-MCP Released (gas sparge): 29%
[4]; Time 0.5 hrs.
  Percent 1-MCP Released (gas sparge): 48%
[4]; Time 0.75 hrs.
  Percent 1-MCP Released (gas sparge): 70%
[4]; Time 1.0 hrs.
  Percent 1-MCP Released (gas sparge): 84%
[4]; Time 1.25 hrs.
  Percent 1-MCP Released (gas sparge): 92%
[4]; Time 1.5 hrs.
  Percent 1-MCP Released (gas sparge): 96%
[4]; Time 2.0 hrs.
  Percent 1-MCP Released (gas sparge): 100%
[5]; Time 0.17 Hrs
  Percent 1-MCP Released (gas sparge): 42%
[5]; Time 0.42 Hrs
  Percent 1-MCP Released (gas sparge): 58%
[5]; Time 0.75 Hrs
  Percent 1-MCP Released (gas sparge): 75%
[5]; Time 1.0 Hrs
  Percent 1-MCP Released (gas sparge): 83%
[5]; Time 2.0 Hrs
  Percent 1-MCP Released (gas sparge): 92%
[6]; Time 0.08
  Percent 1-MCP Released Fountain Pump: 14%
[6]; Time 0.17
  Percent 1-MCP Released Fountain Pump: 43%
[6]; Time 0.42
  Percent 1-MCP Released Fountain Pump: 57%
[6]; Time 1.0
  Percent 1-MCP Released Fountain Pump: 79%
[6]; Time 1.5
  Percent 1-MCP Released Fountain Pump: 86%
[6]; Time 2.5 (hours)
  Percent 1-MCP Released Fountain Pump: 90%
